Reference: patent US12350270B2, “Antimalarial agents” (Merck Sharp & Dohme LLC, priority 2019, dated 2025)

system: parasites (ring stage, in human red blood cell culture); test: Parasite LDH growth assay (antiparasite potency, Parasite Assay); assay type: cell-based, Plasmodium falciparum; settings: 0.7% rings, 2% haematocrit, 72 hours at 37° C., LDH readout of parasite growth
Outline: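 Ring-stage parasites at 0.7% parasitemia and 2% haematocrit, in RPMI-Hepes/bicarbonate with 5% heat-inactivated human serum and 0.5% albumax, were added to compound-containing medium. Cultures grew 72 h at 37 °C in gassed humidified boxes. Plates were then frozen overnight at −80 °C, thawed 4 h, and growth was measured by LDH assay.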

| SMILES | EC50 |
| --- | --- |
| CCC1(CC)CC(=O)N([C@@H]2CCS(=O)(=O)c3ccc(C(=O)N[C@H]4CC(C)(C)Oc5ccccc54)cc32)C(=N)N1 [Example 289, (4R)-4-(4,4-diethyl-2-imino-6-oxo-hexahydropyrimidin-1-yl)-N-[(4S)-2,2-dimethylchroman-4-yl]-1,1-dioxo-3,4-dihydro-2H-thiochromane-6-carboxamide] | 0.6 nM |

same assay, conditions: Plasmodium falciparum, Erythrocyte, 72 h, 0.7% rings, 2% haematocrit, 72 hours at 37° C., LDH readout of parasite growth

| SMILES | EC50 |
| --- | --- |
| CCC1(CC)CC(=O)N([C@H]2c3cc(C(=O)N[C@@H]4c5ccccc5OC[C@]4(C)O)ccc3O[C@]2(C)COC)C(=N)N1 [Example 278, (2S,3S)-3-(4,4-diethyl-2-imino-6-oxo-hexahydropyrimidin-1-yl)-N-[(3R,4R)-3-hydroxy-3-methyl-chroman-4-yl]-2-(methoxymethyl)-2-methyl-3H-benzofuran-5-carboxamide] | 12.2 nM |
| CCC1(CC)CC(=O)N([C@H]2c3cc(C(=O)N[C@@H]4c5ccccc5OC[C@@]4(C)O)ccc3O[C@]2(C)COC)C(=N)N1 [Example 279, (2S,3S)-3-(4,4-diethyl-2-imino-6-oxo-hexahydropyrimidin-1-yl)-N-[(3S,4R)-3-hydroxy-3-methyl-chroman-4-yl]-2-(methoxymethyl)-2-methyl-3H-benzofuran-5-carboxamide] | 31.4 nM |
| CCC1(CC)CC(=O)N([C@H]2c3cc(C(=O)N[C@@H]4c5ccccc5OC[C@@]4(C)O)ccc3O[C@@]2(C)COC)C(=N)N1 [Example 281, (2R,3S)-3-(4,4-diethyl-2-imino-6-oxo-hexahydropyrimidin-1-yl)-N-[(3S,4R)-3-hydroxy-3-methyl-chroman-4-yl]-2-(methoxymethyl)-2-methyl-3H-benzofuran-5-carboxamide] | 1.1 nM |
| CCC1(CC)CC(=O)N([C@@H]2C[C@@H](COC)Oc3ccc(C(=O)N[C@@H]4c5ccccc5OC[C@@]4(C)O)cc32)C(=N)N1 [Example 283, (2S,4R)-4-(4,4-diethyl-2-imino-6-oxo-hexahydropyrimidin-1-yl)-N-[(3S,4R)-3-hydroxy-3-methyl-chroman-4-yl]-2-(methoxymethyl)chromane-6-carboxamide] | 2.6 nM |
| CC[C@]1(C)CC(=O)N(C2c3cc(C(=O)N[C@@H]4c5ccccc5OC(C)(C)[C@H]4O)ccc3OCC2(C)OC)C(=N)N1 (stereo partly drawn) [Example 284, 4-[(4R)-4-ethyl-2-imino-4-methyl-6-oxo-hexahydropyrimidin-1-yl]-N-[(3S,4R)-3-hydroxy-2,2-dimethyl-chroman-4-yl]-3-methoxy-3-methyl-chromane-6-carboxamide] | 8.5 nM |
| CCC1(CC)CC(=O)N(C2c3cc(C(=O)N[C@@H]4c5ccccc5C[C@H]4O)ccc3OC2(COC)COC)C(=N)N1 (stereo partly drawn) [Example 285, 3-(4,4-diethyl-2-imino-6-oxo-hexahydropyrimidin-1-yl)-N-[(1R,2R)-2-hydroxyindan-1-yl]-2,2-bis(methoxymethyl)-3H-benzofuran-5-carboxamide] | 35.5 nM |
| CCC1(CC)CC(=O)N([C@@H]2c3cc(C(=O)N[C@@H]4c5ccccc5OC[C@@]4(C)O)ccc3OC[C@@H]2COC)C(=N)N1 [Example 286, (3S,4S)-4-(4,4-diethyl-2-imino-6-oxo-hexahydropyrimidin-1-yl)-N-[(3S,4R)-3-hydroxy-3-methyl-chroman-4-yl]-3-(methoxymethyl)chromane-6-carboxamide] | 240 nM |
| CCC1(CC)CC(=O)N([C@H]2c3cc(C(=O)N[C@@H]4c5ccccc5OC[C@@]4(C)O)ccc3OC[C@H]2COC)C(=N)N1 [Example 287, (3R,4R)-4-(4,4-diethyl-2-imino-6-oxo-hexahydropyrimidin-1-yl)-N-[(3S,4R)-3-hydroxy-3-methyl-chroman-4-yl]-3-(methoxymethyl)chromane-6-carboxamide] | 1.9 nM |
| CCC1(CC)CC(=O)N([C@H]2c3cc(C(=O)N[C@@H]4c5ccccc5OC[C@@]4(C)O)ccc3OC[C@@H]2COC)C(=N)N1 [Example 288, (3S,4R)-4-(4,4-diethyl-2-imino-6-oxo-hexahydropyrimidin-1-yl)-N-[(3S,4R)-3-hydroxy-3-methyl-chroman-4-yl]-3-(methoxymethyl)chromane-6-carboxamide] | 1.8 nM |
| CCC1(CC)CC(=O)N([C@H]2c3cc(C(=O)N[C@@H]4c5ccccc5C(F)(F)[C@H]4O)ccc3O[C@@]2(C)COC)C(=N)N1 [Example 290, (2R,3S)-3-(4,4-diethyl-2-imino-6-oxo-hexahydropyrimidin-1-yl)-N-[(1R,2S)-3,3-difluoro-2-hydroxy-indan-1-yl]-2-(methoxymethyl)-2-methyl-3H-benzofuran-5-carboxamide] | 0.3 nM |
| CCC1(CC)CC(=O)N(C2CC(C(=O)N(C)C)Oc3ccc(C(=O)N[C@@H]4c5ccccc5C[C@@]4(C)O)cc32)C(=N)N1 (stereo partly drawn) [Example 292, 4-(4,4-diethyl-2-imino-6-oxo-hexahydropyrimidin-1-yl)-N6-[(1R,2R)-2-hydroxy-2-methyl-indan-1-yl]-N2,N2-dimethyl-chromane-2,6-dicarboxamide] | 49.7 nM |
| CC1(C)CC(=O)N([C@@H]2CCS(=O)(=O)c3ccc(C(=O)N[C@H]4C[C@H](C(F)(F)F)Oc5ccccc54)cc32)C(=N)N1 [Example 293, (4R)-4-(2-imino-4,4-dimethyl-6-oxo-hexahydropyrimidin-1-yl)-1,1-dioxo-N-[(2R,4S)-2-(trifluoromethyl)chroman-4-yl]-3,4-dihydro-2H-thiochromene-6-carboxamide] | 2.8 nM |
| CC1(C)CC(=O)N([C@H]2CCS(=O)(=O)c3ccc(C(=O)N[C@H]4C[C@H](C(F)(F)F)Oc5ccccc54)cc32)C(=N)N1 [Example 294, (4S)-4-(2-imino-4,4-dimethyl-6-oxo-hexahydropyrimidin-1-yl)-1,1-dioxo-N-[(2R,4S)-2-(trifluoromethyl)chroman-4-yl]-3,4-dihydro-2H-thiochromene-6-carboxamide] | 259 nM |
| CCC1(CC)CC(=O)N([C@@H]2c3cc(C(=O)N[C@@H]4c5ccccc5OC(C)(C)[C@H]4O)ccc3OC[C@@]2(C)OC)C(=N)N1 [Example 295, (3S,4R)-4-(4,4-diethyl-2-imino-6-oxo-hexahydropyrimidin-1-yl)-N-[(3S,4R)-3-hydroxy-2,2-dimethyl-chroman-4-yl]-3-methoxy-3-methyl-chromane-6-carboxamide] | 100 nM |
| CCC1(CC)CC(=O)N([C@H]2c3cc(C(=O)N[C@@H]4c5ccccc5OC(C)(C)[C@H]4O)ccc3OC[C@]2(C)OC)C(=N)N1 [Example 296, (3R,4S)-4-(4,4-diethyl-2-imino-6-oxo-hexahydropyrimidin-1-yl)-N-[(3S,4R)-3-hydroxy-2,2-dimethyl-chroman-4-yl]-3-methoxy-3-methyl-chromane-6-carboxamide] | 0.3 nM |
| CCC1(CC)CC(=O)N(C2c3cc(C(=O)N[C@@H]4c5ccccc5C[C@@]4(C)O)ccc3OC2(COC)COC)C(=N)N1 (stereo partly drawn) [Example 297, 3-(4,4-diethyl-2-imino-6-oxo-hexahydropyrimidin-1-yl)-N-[(1R,2R)-2-hydroxy-2-methyl-indan-1-yl]-2,2-bis(methoxymethyl)-3H-benzofuran-5-carboxamide] | 241 nM |
| CCC1(CC)CC(=O)N([C@H]2c3cc(C(=O)N[C@@H]4c5ccccc5OC(C)(C)[C@H]4O)ccc3OC[C@H]2COC)C(=N)N1 [Example 298, (3R,4R)-4-(4,4-diethyl-2-imino-6-oxotetrahydropyrimidin-1(2H)-yl)-N-((3S,4R)-3-hydroxy-2,2-dimethylchroman-4-yl)-3-(methoxymethyl)chromane-6-carboxamide] | 0.5 nM |
| CCC1(CC)CC(=O)N([C@H]2c3cc(C(=O)N[C@@H]4c5ccccc5OC(C)(C)[C@H]4O)ccc3OC[C@@H]2COC)C(=N)N1 [Example 299, (3S,4R)-4-(4,4-diethyl-2-imino-6-oxo-hexahydropyrimidin-l-yl)-N-[(3S,4R)-3-hydroxy-2,2-dimethyl-chroman-4-yl]-3-(methoxymethyl)chromane-6-carboxamide] | 0.8 nM |
| CC[C@]1(C)CC(=O)N([C@@H]2C[C@@H](COC(F)F)Oc3ccc(C(=O)N[C@@H]4c5ccccc5OC[C@@]4(C)O)cc32)C(=N)N1 [Example 300, (2S,4R)-2-(difluoromethoxymethyl)-4-[(4R)-4-ethyl-2-imino-4-methyl-6-oxo-hexahydropyrimidin-1-yl]-N-[(3S,4R)-3-hydroxy-3-methyl-chroman-4-yl]chromane-6-carboxamide] | 3.8 nM |
| CCC1(CC)CC(=O)N([C@H]2c3cc(C(=O)N[C@@H]4c5cc(C#N)ccc5OC[C@@]4(C)O)ccc3OC[C@H]2COC)C(=N)N1 [Example 301, (3R,4R)-N-[(3S,4R)-6-cyano-3-hydroxy-3-methyl-chroman-4-yl]-4-(4,4-diethyl-2-imino-6-oxo-hexahydropyrimidin-1-yl)-3-(methoxymethyl)chromane-6-carboxamide] | 1.8 nM |
| CCC1(CC)CC(=O)N(C2CC(C(=O)N(C)C)Oc3ccc(C(=O)N[C@H]4CC(C)(C)Oc5ccccc54)cc32)C(=N)N1 (stereo partly drawn) [Example 302, 4-(4,4-diethyl-2-imino-6-oxo-hexahydropyrimidin-1-yl)-N6-[(4S)-2,2-dimethylchroman-4-yl]-N2,N2-dimethyl-chromane-2,6-dicarboxamide] | 1.7 nM |
| CCC1(CC)CC(=O)N(C2CC(C(=O)N(C)C)Oc3ccc(C(=O)N[C@@H]4c5ccccc5OC[C@@]4(C)O)cc32)C(=N)N1 (stereo partly drawn) [Example 303, 4-(4,4-diethyl-2-imino-6-oxo-hexahydropyrimidin-1-yl)-N6-[(3S,4R)-3-hydroxy-3-methyl-chroman-4-yl]-N2,N2-dimethyl-chromane-2,6-dicarboxamide] | 50.8 nM |
| CCC1(CC)CC(=O)N([C@H]2c3cc(C(=O)N[C@H]4CC(C)(C)Oc5ccccc54)ccc3OC2(COC)COC)C(=N)N1 [Example 304, (3S)-3-(4,4-diethyl-2-imino-6-oxo-hexahydropyrimidin-1-yl)-N-[(4S)-2,2-dimethylchroman-4-yl]-2,2-bis(methoxymethyl)-3H-benzofuran-5-carboxamide] | 5.6 nM |
